“Also recorded” adds a separate entry of the source.
Assays:
mouse TRPA1 [1] = biological target: T1, mouse TRPA1 (Mus musculus, UniProt Q8BLA8); assay: FLIPR calcium-influx assay, block of cinnamaldehyde activation, CHO cells; type: cell-based
T1 construct: expressed in transfected cells; host or cells: CHO cells (tetracycline-induced for PatchXpress; mTRPA1-pcDNA5 named for the transient labelling experiment)
Procedure: Calcium influx was measured using a standard FLIPR assay, data points are the average of 4 wells (˜8,000 cells/well) and error bars show standard error. […] Data was generated using the FLIPR calcium-influx assay, n=3 wells (˜8,000 cells/well) and normalized to the maximal response. Bars show standard error and solid curves are hill equation fits from which EC50 values are derived.
Using FLIPR calcium-influx assay, we screened 43,648 small molecules for their ability to block cinnamaldehyde-activation of human TRPA1 in a CHO cell line.
FLIPR Screen: CHO cells expressing human TRPA1 were plated into 384 well plates at a concentration of ˜8,000 cells/well. Cells were transferred to phosphate-buffered saline (PBS) and loaded with the calcium sensitive dye FLUO-4 using the FLIPR Calcium 3 Assay Kit (Molecular Devices, Sunnyvale, Calif.) 1 hour prior to the assay. Assays were run using the FLIPR2 (Molecular Devices, Sunnyvale, Calif.). All compounds were diluted into PBS from a high concentration DMSO-based stock solution and added during data collection with the FLIPR2 internal pipette head. Final DMSO concentrations never exceeded 0.5%.

cultured rat DRG neurons = assay: Current response of cultured DRG neurons to negative pressure; type: cell-based; details: 2 mM camphor, −150 mmHg
Excerpt: (§1) To ensure that the mechanical response we observe is not an artifact of heterologous expression system, we tested if native TRPA1-expressing neurons also respond to such stimuli. 5/6 cinnamaldehyde-sensitive (presumptive TRPA1-expressing) DRG neurons responded to an application of −200 mmHg of suction, while 0/21 cinnamaldehyde insensitive neurons responded (16 of 21 were capsaicin-sensitive) (FIG. 2B). Millimolar camphor was recently reported to inhibit basal currents and cold or agonist-activation of TRPA1.
Mammalian cell electrophysiology: ThermoTRP-expressing CHO cells (rat TRPV1, rat TRPV2, mouse TRPV3, rat TRPV4, mouse TRPM8, and mouse TRPA1), control CHO cells, and cultured rat DRG neurons were prepared as described in Story et al., Cell 112:819, 2003; and Bandell et al., Neuron 41:849, 2004. Electrophysiological recordings were performed as described in Bandell et al., Neuron 41:849, 2004. […] Currents from DRG neurons were recorded at −60 mV and for their current-voltage curve, 300 ms voltage step at +20 mV was used 40 ms before 800 ms ramp from -80 mV to +80 mV to minimize contamination of voltage gated Na^+ or Ca^2+ current. […] (±)-Pressure was hydrostatically delivered by the recording pipette using syringe pumping (Hamill et al., Annu Rev Physiol 59:621, 1997) and monitored through Pressure Monitor (World Precision Instruments). […]

mouse TRPA1 [2] = biological target: T1, mouse TRPA1; assay: Whole-cell electrophysiology of TRPA1-expressing CHO cells (pressure, hyperosmolarity, cold); type: cell-based; details: for block of TRPA1 currents in response to hyperosmolarity: bath application, 2 min stimulus
Excerpt: We tested if TRPA1 is activated by mechanical forces. The electrophysiological behavior of thermoTRP-expressing Chinese Hamster Ovary (CHO) cells was investigated with two different assays of mechanical stress—pressure application using the recording pipette and changes in external osmolarity.
(§2) Mechanosensory neurons are often classified as high- or low-threshold, characterizing responses to pain and touch, respectively. We tested the mechanical threshold of TRPA1 by applying a wide range of negative pipette pressures (FIG. 1C). TRPA1-expressing CHO cells are activated at −90 mmHg or higher, consistent with native high-threshold mechanical receptors involved in sensing pain (Cho et al., J Neurosci 22:1238, 2002). […] Gadolinium (Gd^3+) is considered a blocker of native mechanically-gated ion channels in animal tissues (Martinac et al., Physiol Rev 81:685, 2001). […] FM1-43 is a styryl dye that specifically labels sensory cells by entering through open transduction channels. […] Furthermore, it was observed that 10 μM of FM1 -43 was able to block cinnamaldehyde-induced currents in TRPA1-expressing CHO cells (n=8).
as §1
Mammalian cell electrophysiology: ThermoTRP-expressing CHO cells (rat TRPV1, rat TRPV2, mouse TRPV3, rat TRPV4, mouse TRPM8, and mouse TRPA1), control CHO cells, and cultured rat DRG neurons were prepared as described in Story et al., Cell 112:819, 2003; and Bandell et al., Neuron 41:849, 2004. Electrophysiological recordings were performed as described in Bandell et al., Neuron 41:849, 2004. Briefly, CHO cells were clamped at −60 mV and 0.8 second ramps from −80 mV to +80 mV were run every 4 seconds. Currents from DRG neurons were recorded at −60 mV and for their current-voltage curve, 300 ms voltage step at +20 mV was used 40 ms before 800 ms ramp from -80 mV to +80 mV to minimize contamination of voltage gated Na^+ or Ca^2+ current. The pipette solution for temperature and hyperosmotic experiments consisted of (in mM) 140 CsCl, 5 EGTA, 10 HEPES, 2 MgATP, 0.2 NaGTP, titrated to pH 7.4 with CsOH. The base external solution for these experiments consisted of (in mM) 140 NaCl, 5KCl, 10 HEPES, 2CaCl2, 1MgCl2, titrated to pH 7.4 with NaOH. Mannitol was used to adjust osmolarity for hypertonic solutions. For mouse TRPV3 and rat TRPV2, external calcium was replaced with 5 mM EGTA. Gluconate was substituted for chloride in (±)-pressure and hypotonic experiments to eliminate the potential for endogenous swelling-activated chloride currents. For these experiments, pipette solution (295 mOsm) consisted of (in mM) 125 Cs-gluconate, 15CsCl, 5 EGTA, 10 HEPES, 2 MgATP, 0.2NaGTP, titrated to pH 7.4 with CsOH. The external solution consisted of (in mM) 90 Na-gluconate, 10 NaCl, 5 K-gluconate, 10 HEPES, 2 CaCl2, 1 MgCl2, titrated to pH 7.4 with NaOH. Osmolarity was adjusted with mannitol to 220 mOsm (hypotonic) or 298 mOsm 15 (isotonic). (±)-Pressure was hydrostatically delivered by the recording pipette using syringe pumping (Hamill et al., Annu Rev Physiol 59:621, 1997) and monitored through Pressure Monitor (World Precision Instruments). Warner temperature controller (TC-324B and CL-100) was used for the heating or cooling the perfused bath solutions. […] The number of cells (n) tested with -100 mmHg to −300 mmHg, ˜+100 mmHg, 450 mOsm, and 220 mOsm for each cell type, respectively, are: CHO cells, n=7, 14, 5, 12; TRPV1, n=6, 5, 7, 5; TRPV2, n=4, 5, 3, 5; TRPV3, n=3, 2, 3, 0; TRPM8, n=12, 4, 10, 0. […]

mTRPA1 = biological target: T2, mTRPA1 (Mus musculus, UniProt Q8BLA8); assay: PatchXpress whole cell patch clamp, cinnamaldehyde-elicited current, CHO cells; type: cell-based
T2 construct: expressed in transfected cells; host or cells: CHO cells (tetracycline-induced for PatchXpress; mTRPA1-pcDNA5 named for the transient labelling experiment)
Excerpt: as §2
FM1-43 experiments: The FM1-43 labeling of CHO cells transfected with mTRPA1 was performed as described (Meyers et al., J Neurosci 23:4054, 2003). Briefly, CHO cells were transfected using Fugene (Roche) with mTRPA1-pcDNA5. For mock transfection CHO cells were treated with Fugene, but without any plasmid DNA. 24 hrs after transfection the cells were incubated for 5 min with 200 μM cinnamaldehyde in physiological buffer (consisted of (in mM) 130 NaCl, 3 KCl, 2 MgCl2, 2 CaCl2, 10 HEPES, 10 glucose) at room temperature, followed by 3 min with 10 μM of FM1-43. The cells were then washed thoroughly and imaged. mTRPA1 and hTRPA1-expressing CHO cells were tested in whole cell patch clamp configuration using the PatchXpress (Axon Instruments) for the effect of the FM143 dye on TRPA1 activation. Cells were plated the day before testing and induced with 0.5 μg/ml tetracycline as previously described in Story et al., Cell 112:819, 2003. Immediately prior to testing, cells were trypsinized and resuspended in calcium-free DMEM media (Invitrogen). […] Holding currents at −80 mV were used for quantitative analysis of TRPA1 activation and inhibition. […]

TRPA1 [3] = biological target: T3, TRPA1 (Homo sapiens, UniProt O75762); assay: as above; type: cell-based; parameters: expressed in transfected cells; host or cells: CHO cell line; details: 10 μM FM1-43 with 100 μM cinnamaldehyde, −80 mV
Procedure: FM1-43 experiments: The FM1-43 labeling of CHO cells transfected with mTRPA1 was performed as described (Meyers et al., J Neurosci 23:4054, 2003). Briefly, CHO cells were transfected using Fugene (Roche) with mTRPA1-pcDNA5. For mock transfection CHO cells were treated with Fugene, but without any plasmid DNA. 24 hrs after transfection the cells were incubated for 5 min with 200 μM cinnamaldehyde in physiological buffer (consisted of (in mM) 130 NaCl, 3 KCl, 2 MgCl2, 2 CaCl2, 10 HEPES, 10 glucose) at room temperature, followed by 3 min with 10 μM of FM1-43. The cells were then washed thoroughly and imaged. mTRPA1 and hTRPA1-expressing CHO cells were tested in whole cell patch clamp configuration using the PatchXpress (Axon Instruments) for the effect of the FM143 dye on TRPA1 activation. Cells were plated the day before testing and induced with 0.5 μg/ml tetracycline as previously described in Story et al., Cell 112:819, 2003. Immediately prior to testing, cells were trypsinized and resuspended in calcium-free DMEM media (Invitrogen). Recordings were performed in extracellular solution containing (in mM) 2.67 KCl, 1.47 KH2PO4, 0.5 MgCl2, 138 NaCl, 8 Na2HPO4, 5.6 glucose. The intracellular solution contained (in mM) 140 KCl, 10 HEPES, 20 glucose, 10 HEDTA and 1 μM buffered free Calcium. Holding currents at −80 mV were used for quantitative analysis of TRPA1 activation and inhibition. […]
Target sequence in this assay (O75762 whole entry): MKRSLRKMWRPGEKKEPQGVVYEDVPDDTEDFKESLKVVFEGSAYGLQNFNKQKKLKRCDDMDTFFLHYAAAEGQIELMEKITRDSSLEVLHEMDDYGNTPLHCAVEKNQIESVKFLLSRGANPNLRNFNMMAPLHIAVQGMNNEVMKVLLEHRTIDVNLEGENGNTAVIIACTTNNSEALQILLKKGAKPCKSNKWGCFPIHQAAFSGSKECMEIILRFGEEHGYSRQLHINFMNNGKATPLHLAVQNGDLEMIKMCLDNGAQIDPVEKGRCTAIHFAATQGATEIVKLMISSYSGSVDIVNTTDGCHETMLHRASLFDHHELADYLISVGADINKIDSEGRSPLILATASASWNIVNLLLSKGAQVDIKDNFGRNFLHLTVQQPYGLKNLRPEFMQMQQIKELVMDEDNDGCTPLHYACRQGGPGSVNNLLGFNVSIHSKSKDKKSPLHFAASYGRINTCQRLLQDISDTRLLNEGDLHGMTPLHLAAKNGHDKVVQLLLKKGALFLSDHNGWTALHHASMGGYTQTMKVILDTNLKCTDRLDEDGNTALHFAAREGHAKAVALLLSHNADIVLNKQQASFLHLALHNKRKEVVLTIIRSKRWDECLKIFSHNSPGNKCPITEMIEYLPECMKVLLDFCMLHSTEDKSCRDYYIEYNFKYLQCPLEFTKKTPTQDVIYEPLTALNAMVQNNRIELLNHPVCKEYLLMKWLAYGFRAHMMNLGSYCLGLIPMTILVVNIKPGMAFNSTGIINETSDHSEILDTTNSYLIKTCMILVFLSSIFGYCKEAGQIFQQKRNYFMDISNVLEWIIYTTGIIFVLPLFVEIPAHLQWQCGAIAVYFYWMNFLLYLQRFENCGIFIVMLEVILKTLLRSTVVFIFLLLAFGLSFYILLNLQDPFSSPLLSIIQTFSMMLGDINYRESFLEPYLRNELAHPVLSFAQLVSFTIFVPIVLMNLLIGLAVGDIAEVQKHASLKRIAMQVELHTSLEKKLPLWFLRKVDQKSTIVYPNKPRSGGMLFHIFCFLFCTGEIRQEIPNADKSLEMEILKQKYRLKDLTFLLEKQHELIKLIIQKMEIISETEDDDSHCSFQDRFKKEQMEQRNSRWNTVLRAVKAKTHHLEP

[4] = test system: CFA-induced heat hyperalgesia; assay: CFA-induced heat hyperalgesia; type: in vivo; details: mice
Procedure: (§3) Red symbols represent responses from CFA-injected (A), or BK-injected (B) hindpaws while blue symbols represent responses from the other noninjected hindpaws of the same animals. Circles represent responses upon compound 18 treatment, whereas triangles represent responses upon vehicle treatments (A-C). Von Frey thresholds are measured and averaged. (***p<0.001, *p<0.05, two-tailed Student's T-test). […] Red symbols represent responses from CFA-injected hindpaws while blue symbols represent responses from the other non-injected hindpaws of the same animals. Number of flicks, licks, paw raises for 10 min at each time point are counted and averaged (n=8, *p<0.05, two-tailed Student's T-test).
(§4) Behavioral assays: Mice (C57B16 Mus musculus) of 8-10 weeks in age and 150-250 g Sprague Dawley rats were used for all behavioral assays. Animals were acclimated for 20-60 min to their testing environment prior to all experiments. Students' T test was used for all statistical calculations. All error bars represent standard error of the mean (SEM). Thermal plates, Hargreaves method (Plantar Analgesia meter) and Von Frey apparatus (Dynamic Plantar Aesthesiometer) were from UGO Basile and Columbus instruments. […] Briefly, mice were acclimated for 60 min to their testing environment prior to all experiments. Baseline responses were measured first and then 10 nM BK was injected to the skin of left hindpaws. Von Frey threshold or paw withdrawal latency was measured at 5, 15 and 30 min post injection. 1 mM of compound 18 was sometimes coinjected to left hindpaws to test its analgesic effect. For CFA-induced hyperalgesia test, 5 μg CFA in 10 uL was injected into mice (Caterina et al., Science 288:306, 2000; and Cao et al., Nature 392:390, 1998) and 50 μg in 100 uL (1:1 emulsion of mineral oil and saline; Obata et al., J Clin Invest 115:2393, 2005) was injected into rats and in 24 hrs measurements were performed. Before the measurement, the animals were re-acclimated to the environment for 20-60 min. […]

[5] = test system: BK-induced nociceptive mechanical behaviours; assay: Bradykinin-induced mechanical hyperalgesia (Von Frey threshold); type: in vivo; details: short term hyperalgesia model, 1 mM coinjected, mice
Procedure: as §3
Behavioral assays: Mice (C57B16 Mus musculus) of 8-10 weeks in age and 150-250 g Sprague Dawley rats were used for all behavioral assays. Animals were acclimated for 20-60 min to their testing environment prior to all experiments. Students' T test was used for all statistical calculations. All error bars represent standard error of the mean (SEM). Thermal plates, Hargreaves method (Plantar Analgesia meter) and Von Frey apparatus (Dynamic Plantar Aesthesiometer) were from UGO Basile and Columbus instruments. […] Baseline responses were measured first and then 10 nM BK was injected to the skin of left hindpaws. Von Frey threshold or paw withdrawal latency was measured at 5, 15 and 30 min post injection. […]

[6] = test system: TRPV1, TRPV2, TRPV3, TRPV4, or TRPM8; assay: Effect on other thermoTRPs (summary statement); type: cell-based
Excerpt: TRPA1 inhibitors that can be employed in the practice of the present invention include compounds that interferes with the expression, modification, regulation or activation of TRPA1, or compounds that down-regulates one or more of the normal biological activities of TRPA1 (e.g., its ion channel). […] Various TRPA1-specific antagonists can be used in the instant invention. Some of these TRPA1-specific inhibitors are identified by the present inventors, as described in the Examples below. These compounds can be obtained commercially or are otherwise described in the art. One such compound is Compound 18, (Z)-4-(4-chlorophynyl)-3-methylbut-3-en-2-oxime. This compound can be obtained commercially from Maybridge (Cornwall, UK). Another example is Compound 40, N,N′-Bis-(2-hydroxybenzyl)-2,5-diamino-2,5-dimethylhexane, which has been described in U.S. Pat. No. 4,129,556. […] Thus, these two compounds can be readily used to treat or alleviate mechanical hyperalgesia as described in more detail below.

[7] = test system: CFA-induced mechanical hyperalgesia; assay: CFA-induced mechanical hyperalgesia (Von Frey threshold); type: in vivo; details: injected into hindpaw 24 hours after CFA, mice
Procedure: as §3, §4

TRPA1 [8] = biological target: T3, TRPA1; assay: TRPA1 block, test not specified; details: summary statement
Target sequence in this assay (O75762 whole entry, species assumed): as the sequence (O75762 whole entry) above

[9] = test system: bradykinin (BK)-induced heat hyperalgesia; assay: Bradykinin-induced heat hyperalgesia; type: in vivo; details: mice
Procedure: as §3, §4

T1 sequence (Q8BLA8 whole entry): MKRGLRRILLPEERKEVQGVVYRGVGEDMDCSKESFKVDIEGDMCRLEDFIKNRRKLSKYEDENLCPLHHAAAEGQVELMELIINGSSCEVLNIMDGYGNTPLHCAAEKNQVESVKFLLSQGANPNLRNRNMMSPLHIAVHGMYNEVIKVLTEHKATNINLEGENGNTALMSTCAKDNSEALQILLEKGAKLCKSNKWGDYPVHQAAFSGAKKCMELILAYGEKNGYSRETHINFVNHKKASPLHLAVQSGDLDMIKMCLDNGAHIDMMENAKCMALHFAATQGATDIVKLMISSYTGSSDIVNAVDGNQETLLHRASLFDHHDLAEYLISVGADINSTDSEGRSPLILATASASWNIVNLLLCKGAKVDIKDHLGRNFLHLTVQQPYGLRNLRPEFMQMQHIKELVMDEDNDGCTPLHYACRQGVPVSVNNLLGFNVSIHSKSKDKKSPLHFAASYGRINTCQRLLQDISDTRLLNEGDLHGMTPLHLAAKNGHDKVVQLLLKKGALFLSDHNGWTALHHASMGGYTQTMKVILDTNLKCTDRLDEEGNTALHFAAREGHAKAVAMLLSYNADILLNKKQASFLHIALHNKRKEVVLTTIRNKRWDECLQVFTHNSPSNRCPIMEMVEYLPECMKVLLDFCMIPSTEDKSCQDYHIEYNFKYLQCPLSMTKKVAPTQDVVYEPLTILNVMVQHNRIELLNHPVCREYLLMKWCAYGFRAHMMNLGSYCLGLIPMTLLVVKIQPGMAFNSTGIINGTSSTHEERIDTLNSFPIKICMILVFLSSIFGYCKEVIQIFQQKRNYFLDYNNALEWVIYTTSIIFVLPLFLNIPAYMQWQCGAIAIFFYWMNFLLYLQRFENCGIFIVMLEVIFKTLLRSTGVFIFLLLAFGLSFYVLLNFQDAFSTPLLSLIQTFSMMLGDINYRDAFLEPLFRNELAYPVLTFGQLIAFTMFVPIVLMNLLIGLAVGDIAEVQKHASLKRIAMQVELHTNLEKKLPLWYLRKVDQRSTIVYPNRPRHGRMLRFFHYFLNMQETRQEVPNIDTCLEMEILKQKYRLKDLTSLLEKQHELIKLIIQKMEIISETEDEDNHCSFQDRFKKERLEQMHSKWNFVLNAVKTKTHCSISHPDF
T2 sequence (Q8BLA8 whole entry): as above

O=CC=Cc1ccccc1 [cinnamaldehyde]
EC50 (mouse TRPA1 [1]; control (no compound 18)): 50 µM | EC50 (mouse TRPA1 [1]; with 25 μM compound 18): 220 µM

CC12CCC(CC1=O)C2(C)C (stereo not shown) [camphor]
block of current response of DRG neurons to (−) pressure (cultured rat DRG neurons): completely blocks; also recorded: fully inhibited | block of current activation of TRPA1 upon (−) pressure in CHO cells (mouse TRPA1 [2]; 2 mM camphor, −100 mmHg): completely block

CCCCN(CCCC)c1ccc(/C=C/c2cc[n+](CCC[N+](CC)(CC)CC)cc2)cc1.[Br-].[Br-] [FM1-43]
block of cinnamaldehyde-induced currents in TRPA1-expressing CHO cells (mTRPA1; 10 μM FM1-43): able to block | cells in which an inhibition of the current was observed (mTRPA1; 10 μM FM1-43 with 100 μM cinnamaldehyde, −80 mV): 7/8 | block in current, on average (mTRPA1; 10 μM FM1-43 with 100 μM cinnamaldehyde, average stated for mTRPA1 and hTRPA1 cells together): 50% | cells in which an inhibition of the current was observed (TRPA1 [3]): 3/4

[Gd+3] [Gd3+, Gadolinium]
block of TRPA1 currents in response to negative pressure (mouse TRPA1 [2]; 10 μM Gd3+, -100 mmHg): completely and reversibly blocked | block of TRPA1 currents in response to hyperosmolarity (mouse TRPA1 [2]; 10 μM Gd3+, 450 mOsm): completely blocks | block of TRPA1 currents in response to hyperosmolarity (mouse TRPA1 [2]; 10 μM Gd3+, 450 mOsm, listed as Gd^3+): completely and reversibly blocked

CC(C)(CCC(C)(C)NCc1ccccc1O)NCc1ccccc1O [Compound 40, N,N′-Bis-(2-hydroxybenzyl)-2,5-diamino-2,5-dimethylhexane]
CFA-induced heat hyperalgesia [4]: very similar results | BK-induced mechanical nociceptive behavior [5]: very similar results | effect on activation or activities of the other thermoTRPs [6]: little or no effect | CFA-induced mechanical hyperalgesia [7]: very similar results | inhibition of TRPA1 activation or function (TRPA1 [8]): specifically inhibit TRPA1 activation or function; also recorded: blocks TRPA1 | BK-induced heat hyperalgesia [9]: very similar results

N.N.N.N.N.N.N.N.N.N.N.N.N.N.[Cl-].[Cl-].[Cl-].[Cl-].[Cl-].[Cl-].[O-2].[O-2].[Ru+3].[Ru+3].[Ru+4] [ruthenium red]
block of mechanosensitive TRPA1 currents upon hyperosmolarity (mouse TRPA1 [2]; 5 μM ruthenium red, 450 mOsm): completely blocked | block of mechanosensitive TRPA1 currents upon (−) pressure (mouse TRPA1 [2]; 5 μM ruthenium red, -100 mmHg): completely blocked
